This data set in a line: in vitro. The settings on record: rat, gh3-tre-luc cells.

Where a name gives a salt, the structure may show the parent alone.

Consider `Cc1cc(SCc2sc(-c3ccc(C(F)(F)F)c(F)c3)nc2C)ccc1OCC(=O)O` [{4-[({2-[3-Fluoro-4-(trifluoromethyl)phenyl]-4-methyl-1,3-thiazol-5-yl}methyl)sulfanyl]-2-methylphenoxy}acetic acid], for which, for the setting “AC50 (uM) modified / 1000”, the half-maximal cytotoxic concentration (CC50) at 24 h was 64.8 µM. This counts as double-digit micromolar.

`NCCc1ccc(O)c(O)c1` [Dopamine hydrochloride]: for the setting “AC50 (uM) modified / 1000”, half-maximal cytotoxicity (CC50 at 24 h) was put at 55.3 µM.

As for `C/C(=N\Cc1ccccc1)c1ccccc1O` [Oletimol], the CC50 at 24 h (AC50 (uM) modified / 1000) was more than 50 µM.

For `Cn1cc(C2=C(c3cn(C4CCN(Cc5ccccn5)CC4)c4ccccc34)C(=O)NC2=O)c2ccccc21` [Enzastaurin], the cytotoxic concentration (CC50) at 24 h (AC50 (uM) modified / 1000) was more than 50 µM.

As for `COC(c1ccccc1)(c1ccccc1)[C@H](Oc1nc(C)cc(C)n1)C(=O)O` [Ambrisentan], the CC50 at 24 h (AC50 (uM) modified / 1000) was more than 50 µM.

As to `CCCCCNC(=N)N/N=C/c1c[nH]c2ccc(OC)cc12` [Tegaserod], the CC50 at 24 h (AC50 (uM) modified / 1000) was more than 50 µM.

With `C1=C\CC/C=C/CC/C=C/CC/1` [1,5,9-Cyclododecatriene], the cytotoxic concentration (CC50) at 24 h (AC50 (uM) modified / 1000) was more than 90 µM.

Take `CC[C@H]1OC(=O)[C@H](C)[C@@H](O[C@H]2C[C@@](C)(OC)[C@@H](O)[C@H](C)O2)[C@H](C)[C@@H](O[C@@H]2O[C@H](C)C[C@H](N(C)C)[C@H]2O)[C@](C)(O)C[C@@H](C)C(=O)[C@H](C)[C@@H](O)[C@]1(C)O` [Erythromycin]: the CC50 at 24 h (AC50 (uM) modified / 1000) is more than 70 µM.

Where the note is “AC50 (uM) modified / 1000”, `CCCC(=O)C(=O)O` [2-Oxopentanoic acid] yielded a CC50 at 24 h of more than 90 µM.

With `CCCCCCc1ccc(N)cc1` [4-Hexylaniline], the 50% cytotoxic concentration (CC50) at 24 h (AC50 (uM) modified / 1000) was determined as 81.3 µM.

In turn, `c1cc(CCCc2ccncc2)ccn1` [4,4'-Propane-1,3-diyldipyridine] returned a half-maximal cytotoxic concentration (CC50) at 24 h (AC50 (uM) modified / 1000) of more than 90 µM.

As to `C[C@H]1O[C@@H](O[C@H]2CC[C@@]3(C)[C@H](CC[C@@H]4[C@@H]3C[C@@H](O)[C@]3(C)[C@@H](C5=CC(=O)OC5)CC[C@]43O)C2)C[C@H](O)[C@@H]1O[C@H]1C[C@H](O)[C@H](O[C@H]2C[C@H](O)[C@H](O[C@@H]3O[C@H](CO)[C@@H](O)[C@H](O)[C@H]3O)[C@@H](C)O2)[C@@H](C)O1` [Deslanoside], the CC50 at 24 h (AC50 (uM) modified / 1000) was more than 50 µM.

Consider `C[C@@H]1CC[C@H]2C(C)(C)C3CC12CC[C@@]3(C)O` (single isomer, unassigned; (+)) [(+)-Cedrol], for which the cytotoxic concentration (CC50) at 24 h (AC50 (uM) modified / 1000) worked out at 71.6 µM.

For `CC(=O)OCc1ccccc1` [Benzyl acetate], for the setting “AC50 (uM) modified / 1000”, the 50% cytotoxic concentration (CC50) at 24 h is more than 90 µM.

Take `C=C(C)C(=O)OCc1ccccc1` [Benzyl methacrylate]: the cytotoxic concentration (CC50) at 24 h (AC50 (uM) modified / 1000) was more than 90 µM.

On to `CNC(=O)Nc1ccc(Cl)c(Cl)c1` [N-(3,4-Dichlorophenyl)-N'-methylurea], for which the CC50 at 24 h (AC50 (uM) modified / 1000) is more than 90 µM.

In turn, `CSSc1ccoc1C` [Methyl 2-methyl-3-furyl disulfide] gave a CC50 at 24 h (AC50 (uM) modified / 1000) of more than 80 µM.

Turning to `O=C1c2ccccc2C(=O)c2cc(Cl)ccc21` [2-Chloroanthraquinone], where the note is “AC50 (uM) modified / 1000”, the CC50 at 24 h was more than 5 µM.

For the setting “AC50 (uM) modified / 1000”, `CO[C@H]1O[C@@H]2O[C@@]3(C)CC[C@H]4[C@H](C)CC[C@@H]([C@H]1C)[C@@]24OO3` [Artemether] displayed a CC50 at 24 h of more than 50 µM.

As for `O=C(CCN1CC1)OCC(CO)(COC(=O)CCN1CC1)COC(=O)CCN1CC1` [3-{[3-(Aziridin-1-yl)propanoyl]oxy}-2-({[3-(aziridin-1-yl)propanoyl]oxy}methyl)-2-(hydroxymethyl)propyl 3-(aziridin-1-yl)propanoate], where the note is “AC50 (uM) modified / 1000”, the CC50 at 24 h is more than 90 µM.

`C=C(C)C(=O)OCCC(C)OC(=O)C(=C)C` (centres unmarked) [1,3-Butyleneglycol dimethacrylate] registered a CC50 at 24 h (AC50 (uM) modified / 1000) of more than 90 µM.

Consider `C=CCN1C(=O)C(CC(C)C)NC1=S` (centres unmarked) [Albutoin], for which the CC50 at 24 h (AC50 (uM) modified / 1000) is more than 50 µM.

Compound `CCC(C)c1cc([N+](=O)[O-])cc([N+](=O)[O-])c1OC(=O)C=C(C)C` (centres unmarked) [Binapacryl] returned a half-maximal cytotoxic concentration (CC50) at 24 h (AC50 (uM) modified / 1000) of 36.3 µM. In other words, the double-digit micromolar range.

In turn, `C=CC(=O)OCCCCO` [4-Hydroxybutyl prop-2-enoate] yielded a 50% cytotoxic concentration (CC50) at 24 h (AC50 (uM) modified / 1000, Tox21_110001=Tox21_302651, viability, 1 nM T3 present, 24 h) of 73.9 µM.

As to `O=C1C(CC[S+]([O-])c2ccccc2)C(=O)N(c2ccccc2)N1c1ccccc1` (centres unmarked) [Sulfinpyrazone], for the setting “AC50 (uM) modified / 1000”, the CC50 at 24 h is more than 20 µM.

`CN1CCOCC1` [4-Methylmorpholine]: the CC50 at 24 h (AC50 (uM) modified / 1000) was more than 90 µM.

Broadly, the CC50 is the concentration at which the toxic effect on the cells reaches its halfway point. Higher therefore signals lower toxicity to the cells.

These data come from publication PMC6792352, “Limited Chemical Structural Diversity Found to Modulate Thyroid Hormone Receptor in the Tox21 Chemical Library” (Environmental Health Perspectives, 2019).
